# Measured values taken from patent US8106089B2, “Anti-tubulin acting arylpyrrol, arylfuran and arylthiophene derivatives, method for the preparation thereof and for the use thereof as an antimitotic” (Centre National de la Recherche, priority 2004, dated 2012).
# How the values were obtained:
# Format in all cases: cell-based
# [1] = test system: mouse leukemia (L1210) cells; assay: Cell cycle progression, flow cytometry after propidium iodide labeling; conditions: 24 hours
# Procedure: (§1) In order to approach the mechanism of action of these compounds, we then studied their effect on the progression of the cell cycle in mouse melanoma (B16) cells and mouse leukemia (L1210) cells. For this purpose, we compared the distribution of the treated or untreated cells in each phase of the cycle. […] They then were fixed and made permeable with ethanol. After incubation with propidium iodide, which labels cellular DNA, the DNA content of the cells is then analyzed by flow cytometry.
# [2] = test system: mouse melanoma (B16) cells; assay: as above; conditions: for % of B16 cells in phase G1 / % of B16 cells in phase G2/M / % of B16 cells in phase S: 24 hours
# Procedure: as §1
# [3] = test system: L1210 mouse leukemia cells; assay: MTT test, cell growth; conditions: mean ± sd of 3 experiments in triplicate, read-out: IC50 (concentration that inhibits 50% of cell growth) ± sd
# From the text: (§2) Aim: Given the role of tubulin in the formation of the mitotic spindle, we analyzed the effect of the compounds according to the present invention on the cell cycle of the following murine cells using various methods: the murine melanoma tumor cell line, the B16 F1 cell line and the mel a cell line (melanocytes), and the L1210 mouse leukemia cell line.
# (§3) We initially evaluated the effect of compounds 17, 18 and 19 on the growth of the three cell lines by a “MTT” test. The principle of the MTT test consists of measuring the activity of mitochondrial succinate dehydrogenase in living cells. This enzyme transforms MTT (3-(4,5-dimethylthiazol-2-yl)-2,5-diphenyltetrazolium bromide), yellow in color, into insoluble purple formazan crystals. After dissolution of the crystals in dimethylsulfoxide (DMSO), absorbance is measured at 540 nm by spectrophotometry. The optical densities obtained are directly proportional to the number of living cells. The cytotoxic effect of a sample is evaluated by the percentage of living cells in the presence of this sample, compared to the cells treated with the solvent alone. This method makes it possible to measure the proportion of living cells in a given cell population. By comparison with untreated cells, we thus determined the concentration of each compound that induces a 50% inhibition of cell growth. The IC50 ranges from 50 μM to 100 μM.
# B16 F1 cells = assay: MTT test, cell growth; conditions: Mus musculus, mean ± sd of 3 experiments in triplicate, read-out: IC50 (concentration that inhibits 50% of cell growth) ± sd
# From the text: as §2, §3
# mel a melanocytes = assay: MTT test, cell growth; conditions: Mus musculus, Melanocyte, mean ± sd of 3 experiments in triplicate, read-out: IC50 (concentration that inhibits 50% of cell growth) ± sd
# From the text: as §2, §3
SMILES,% of L1210 cells in phase G1 ([1]; 40 μM),% of L1210 cells in phase G2/M ([1]; 40 μM),% of L1210 cells in phase S ([1]; 40 μM),% of B16 cells in phase G1 ([2]; 75 μM),% of B16 cells in phase G2/M ([2]; 75 μM),% of B16 cells in phase S ([2]; 75 μM),IC50 [3],IC50 (B16 F1 cells),% of L1210 cells in phase G1 ([1]; 50 μM),% of L1210 cells in phase G2/M ([1]; 50 μM),% of L1210 cells in phase S ([1]; 50 μM),% of B16 cells in phase G1 ([2]; 50 μM),% of B16 cells in phase G2/M ([2]; 50 μM),% of B16 cells in phase S ([2]; 50 μM),IC50 (mel a melanocytes),other results
"CC(C)c1cc(-c2ccccc2)c(CCCO)[nH]1 [Compound 18, 3-(5-Isopropyl-3-phenyl-1H-pyrrol-2-yl)-propan-1-ol]",32.7%,12.6%,54.7%,65.0%,12.1%,11.3%,33.2 ± 1.3 µM,171 ± 10.8 µM,,,,,,,,% of L1210 cells in phase G1 ([1]; 55 μM): 30.9%; % of L1210 cells in phase G2/M ([1]; 55 μM): 21.9%; % of L1210 cells in phase S ([1]; 55 μM): 47.2%; % of B16 cells in phase G1 ([2]; 125 μM): 50.0%; % of B16 cells in phase G2/M ([2]; 125 μM): 32.0%; % of B16 cells in phase S ([2]; 125 μM): 5.2%; % of B16 cells in phase G1 ([2]; 150 μM): 42.1%; % of B16 cells in phase G2/M ([2]; 150 μM): 36.0%; % of B16 cells in phase S ([2]; 150 μM): 21.8%
"CC(C)c1cc(-c2ccccc2N)c(CCCO)n1C(=O)OC(C)(C)C [Compound 17, 3-(2-Amino-phenyl)-2-(3-hydroxy-propyl)-5-isopropyl-pyrrole-1-carboxylic acid tert-butyl ester]",54.9%,23.2%,21.9%,,,,53.7 ± 0.7 µM,88.7 ± 7.6 µM,39.2%,43.6%,17.2%,58.0%,25.4%,16.6%,69.7 ± 0.9 µM,% of B16 cells in phase G1 ([2]; 70 μM): 40.8%; % of B16 cells in phase G2/M ([2]; 70 μM): 22.3%; % of B16 cells in phase S ([2]; 70 μM): 37%; % of B16 cells in phase G1 ([2]; 100 μM): 43.3%; % of B16 cells in phase G2/M ([2]; 100 μM): 16.5%; % of B16 cells in phase S ([2]; 100 μM): 40.3%
"CC(C)c1cc(-c2ccccc2N)c(CCCO)[nH]1 [Compound 19, 3-[3-(2-Amino-phenyl)-5-isopropyl-1H-pyrrol-2-yl]-propan-1-ol]",,,,56.1%,31.9%,2.8%,17.7 ± 4.5 µM,107 ± 1.8 µM,49.5%,24%,26.5%,78.7%,5.2%,14.1%,116 ± 3.2 µM,% of L1210 cells in phase G1 ([1]; 75 μM): 39.8%; % of L1210 cells in phase G2/M ([1]; 75 μM): 38.8%; % of L1210 cells in phase S ([1]; 75 μM): 21.4%
"CC(C)c1ccc(CCCO)[nH]1 [Compound 21, 3-(5-Isopropyl-1H-pyrrol-2-yl)-propan-1-ol]",,,,,,,> 400 µM,> 400 µM,,,,,,,,
"CC(C)[C@@H](C=O)NC(=O)OC(C)(C)C [compound 2, (S)—N-(tert-Butoxycarbonyl)valinal]",,,,,,,,,,,,,,,,"higher proportion of cells in phase G2/M versus control ([2]; concentrations near IC50 or higher, cell line not stated): approximately 3 times"
